Experimental data reported in the kinase profiling compilation of Christmann-Franck et al. (2016).

Tests used:
Experiment in all cases: KINOMEscan competition binding
Details in all cases: compound 0.5 µM
IKBKB (human) = IKBKB (human) (UniProt O14920)
[1] = tested on: FGFR3 (human), P22607 [G697C]
CLK4 (human) = CLK4 (human) (UniProt Q9HAZ1)
BMPR1A (human) = BMPR1A (human) (UniProt P36894)
FLT4 (human) = FLT4 (human) (UniProt P35916)
[2] = target: TYK2 JH2 pseudokinase (human) (UniProt P29597)
BMP2K (human) = BMP2K (human) (UniProt Q9NSY1)
PI4KB (human) = PI4KB (human) (UniProt Q9UBF8)
RIPK1 (human) = RIPK1 (human) (UniProt Q13546)
OXSR1 (human) = OXSR1 (human) (UniProt O95747)
EPHB2 (human) = EPHB2 (human) (UniProt P29323)
EPHB4 (human) = EPHB4 (human) (UniProt P54760)
STK32C (human) = STK32C (human) (UniProt Q86UX6)
RPS6KA2 KD1 (human) = RPS6KA2 KD1 (human) (UniProt Q15349)
CDK18 (human) = CDK18 (human) (UniProt Q07002)
STK33 (human) = STK33 (human) (UniProt Q9BYT3)
PIK3CA (human) = PIK3CA (human) (UniProt P42336)
CSNK1G1 (human) = CSNK1G1 (human) (UniProt Q9HCP0)
MAPK12 (human) = MAPK12 (human) (UniProt P53778)
TGFBR2 (human) = TGFBR2 (human) (UniProt P37173)
PAK7 (human) = PAK7 (human) (UniProt Q9P286)
RPS6KA5 KD2 (human) = RPS6KA5 KD2 (human) (UniProt O75582)
ANKK1 (human) = ANKK1 (human) (UniProt Q8NFD2)
PDGFRB (human) = PDGFRB (human) (UniProt P09619)
MAPK11 (human) = MAPK11 (human) (UniProt Q15759)
CDC42BPB (human) = CDC42BPB (human) (UniProt Q9Y5S2)
Chain of CDC42BPB (human) (Q9Y5S2 whole entry, looked up): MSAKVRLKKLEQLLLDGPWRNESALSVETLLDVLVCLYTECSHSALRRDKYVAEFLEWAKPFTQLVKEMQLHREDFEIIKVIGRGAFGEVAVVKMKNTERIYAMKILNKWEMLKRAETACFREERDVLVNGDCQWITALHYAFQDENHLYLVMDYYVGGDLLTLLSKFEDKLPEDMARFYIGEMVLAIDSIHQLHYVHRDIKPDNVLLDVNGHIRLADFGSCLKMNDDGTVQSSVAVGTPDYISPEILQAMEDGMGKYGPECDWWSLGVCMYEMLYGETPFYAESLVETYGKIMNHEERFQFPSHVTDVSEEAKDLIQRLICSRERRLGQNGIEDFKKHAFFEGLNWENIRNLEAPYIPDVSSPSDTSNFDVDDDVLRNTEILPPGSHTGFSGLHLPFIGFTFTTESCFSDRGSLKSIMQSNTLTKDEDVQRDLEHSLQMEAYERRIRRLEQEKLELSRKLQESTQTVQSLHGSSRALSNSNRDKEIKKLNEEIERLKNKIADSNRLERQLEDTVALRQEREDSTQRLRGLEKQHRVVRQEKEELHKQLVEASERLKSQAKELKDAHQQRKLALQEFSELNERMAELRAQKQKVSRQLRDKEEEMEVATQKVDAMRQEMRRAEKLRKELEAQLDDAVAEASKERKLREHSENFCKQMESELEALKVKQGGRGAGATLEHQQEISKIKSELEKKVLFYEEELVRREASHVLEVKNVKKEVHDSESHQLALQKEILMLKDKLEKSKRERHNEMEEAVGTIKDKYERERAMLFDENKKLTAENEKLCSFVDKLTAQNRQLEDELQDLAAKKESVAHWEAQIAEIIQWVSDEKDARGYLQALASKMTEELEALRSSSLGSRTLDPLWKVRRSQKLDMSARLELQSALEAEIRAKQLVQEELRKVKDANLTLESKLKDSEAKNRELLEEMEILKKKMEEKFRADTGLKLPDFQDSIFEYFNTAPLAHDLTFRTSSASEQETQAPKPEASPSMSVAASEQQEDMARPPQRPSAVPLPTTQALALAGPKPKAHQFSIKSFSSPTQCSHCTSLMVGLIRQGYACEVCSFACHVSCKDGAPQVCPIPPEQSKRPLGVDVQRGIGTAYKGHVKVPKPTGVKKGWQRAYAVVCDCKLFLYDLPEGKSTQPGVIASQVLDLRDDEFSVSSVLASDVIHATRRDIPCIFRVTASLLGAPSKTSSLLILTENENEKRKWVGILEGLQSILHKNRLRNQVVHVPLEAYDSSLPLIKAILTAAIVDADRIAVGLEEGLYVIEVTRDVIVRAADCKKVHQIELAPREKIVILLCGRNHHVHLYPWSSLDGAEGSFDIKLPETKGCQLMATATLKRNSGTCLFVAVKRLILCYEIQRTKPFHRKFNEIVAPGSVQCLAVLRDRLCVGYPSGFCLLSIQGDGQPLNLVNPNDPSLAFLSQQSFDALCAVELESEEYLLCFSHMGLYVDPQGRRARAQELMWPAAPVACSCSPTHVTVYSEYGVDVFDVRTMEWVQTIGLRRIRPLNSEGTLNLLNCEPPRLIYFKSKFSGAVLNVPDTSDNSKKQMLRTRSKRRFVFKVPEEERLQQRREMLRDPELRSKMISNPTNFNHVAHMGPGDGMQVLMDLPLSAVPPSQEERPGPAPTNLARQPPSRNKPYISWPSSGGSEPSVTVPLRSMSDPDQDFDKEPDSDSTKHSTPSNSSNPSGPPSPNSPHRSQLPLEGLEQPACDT

FES (human) = FES (human) (UniProt P07332)
MLTK (human) = MLTK (human) (UniProt Q9NYL2)
Chain of MLTK (human) (Q9NYL2 whole entry, looked up): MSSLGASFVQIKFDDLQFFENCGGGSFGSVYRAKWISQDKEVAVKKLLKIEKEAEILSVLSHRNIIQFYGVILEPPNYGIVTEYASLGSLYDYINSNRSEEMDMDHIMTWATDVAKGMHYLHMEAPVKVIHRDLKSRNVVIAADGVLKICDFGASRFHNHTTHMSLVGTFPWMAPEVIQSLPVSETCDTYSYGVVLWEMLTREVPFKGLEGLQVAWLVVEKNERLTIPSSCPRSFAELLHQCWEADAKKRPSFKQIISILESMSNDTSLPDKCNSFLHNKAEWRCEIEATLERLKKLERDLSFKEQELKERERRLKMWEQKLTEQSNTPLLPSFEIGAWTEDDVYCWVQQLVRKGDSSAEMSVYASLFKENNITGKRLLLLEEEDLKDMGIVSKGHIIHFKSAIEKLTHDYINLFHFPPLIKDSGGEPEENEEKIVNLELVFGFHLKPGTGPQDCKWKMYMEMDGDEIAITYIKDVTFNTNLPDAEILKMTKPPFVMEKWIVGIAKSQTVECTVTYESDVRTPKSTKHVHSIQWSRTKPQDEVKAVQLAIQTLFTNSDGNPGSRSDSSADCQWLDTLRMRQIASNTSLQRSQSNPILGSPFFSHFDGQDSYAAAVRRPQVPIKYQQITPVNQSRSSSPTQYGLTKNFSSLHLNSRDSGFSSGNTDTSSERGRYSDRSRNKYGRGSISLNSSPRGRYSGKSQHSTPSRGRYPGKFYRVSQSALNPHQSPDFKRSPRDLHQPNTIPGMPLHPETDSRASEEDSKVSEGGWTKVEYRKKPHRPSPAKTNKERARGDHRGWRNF

AKT1 (human) = AKT1 (human) (UniProt P31749)
NUAK1 (human) = NUAK1 (human) (UniProt O60285)
PRKG2 (human) = PRKG2 (human) (UniProt Q13237)
Chain of PRKG2 (human) (Q13237 whole entry, looked up): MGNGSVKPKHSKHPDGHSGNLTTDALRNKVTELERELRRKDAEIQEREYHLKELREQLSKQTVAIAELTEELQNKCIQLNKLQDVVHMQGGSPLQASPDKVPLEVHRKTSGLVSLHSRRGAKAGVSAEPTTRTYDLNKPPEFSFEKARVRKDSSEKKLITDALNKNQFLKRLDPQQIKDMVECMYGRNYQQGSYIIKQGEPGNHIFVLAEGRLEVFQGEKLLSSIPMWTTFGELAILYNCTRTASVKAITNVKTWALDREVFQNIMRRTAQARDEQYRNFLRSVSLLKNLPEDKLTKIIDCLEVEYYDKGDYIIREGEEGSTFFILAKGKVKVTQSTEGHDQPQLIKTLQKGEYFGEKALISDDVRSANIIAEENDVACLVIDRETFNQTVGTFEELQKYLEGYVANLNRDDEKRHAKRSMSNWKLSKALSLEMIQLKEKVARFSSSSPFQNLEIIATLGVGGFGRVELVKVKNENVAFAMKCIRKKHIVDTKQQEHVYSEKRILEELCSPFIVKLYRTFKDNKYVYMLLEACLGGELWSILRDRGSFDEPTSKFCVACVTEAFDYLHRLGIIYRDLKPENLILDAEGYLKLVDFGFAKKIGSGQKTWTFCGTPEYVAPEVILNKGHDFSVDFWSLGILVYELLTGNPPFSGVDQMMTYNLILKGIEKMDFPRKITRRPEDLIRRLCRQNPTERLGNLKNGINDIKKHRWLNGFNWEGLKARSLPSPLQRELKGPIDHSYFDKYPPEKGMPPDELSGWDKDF

LRRK2 (human) = LRRK2 (human) (UniProt Q5S007)
[3] = target: JAK2 JH1 catalytic (human) (UniProt O60674)
WEE1 (human) = WEE1 (human) (UniProt P30291)
MAP2K3 (human) = MAP2K3 (human) (UniProt P46734)
CDC2L2 (human) = CDC2L2 (human) (UniProt Q9UQ88)
Chain of CDC2L2 (human) (Q9UQ88 whole entry, looked up): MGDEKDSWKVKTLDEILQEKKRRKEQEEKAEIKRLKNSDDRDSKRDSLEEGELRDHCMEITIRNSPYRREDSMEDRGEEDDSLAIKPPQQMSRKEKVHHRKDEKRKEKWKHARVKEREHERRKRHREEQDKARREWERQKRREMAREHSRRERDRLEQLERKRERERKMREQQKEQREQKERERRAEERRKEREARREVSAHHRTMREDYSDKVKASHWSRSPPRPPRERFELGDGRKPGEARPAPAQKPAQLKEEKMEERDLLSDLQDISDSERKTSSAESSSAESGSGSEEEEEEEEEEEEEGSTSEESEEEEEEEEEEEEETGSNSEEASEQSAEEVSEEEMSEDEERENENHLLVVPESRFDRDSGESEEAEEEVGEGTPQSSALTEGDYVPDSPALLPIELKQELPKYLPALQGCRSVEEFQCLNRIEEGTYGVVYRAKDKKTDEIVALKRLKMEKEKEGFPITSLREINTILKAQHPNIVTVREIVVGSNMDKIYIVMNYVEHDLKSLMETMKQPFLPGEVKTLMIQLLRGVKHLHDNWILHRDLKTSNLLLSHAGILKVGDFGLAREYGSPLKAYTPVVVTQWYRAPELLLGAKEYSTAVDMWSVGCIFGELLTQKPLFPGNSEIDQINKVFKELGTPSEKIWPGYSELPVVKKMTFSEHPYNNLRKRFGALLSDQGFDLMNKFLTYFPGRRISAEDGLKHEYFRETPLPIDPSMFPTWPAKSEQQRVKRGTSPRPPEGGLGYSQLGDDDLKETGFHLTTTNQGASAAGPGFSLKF

[4] = tested on: FLT3 (human), P36888 [K663Q]
IKBKE (human) = IKBKE (human) (UniProt Q14164)
Chain of IKBKE (human) (Q14164 whole entry, looked up): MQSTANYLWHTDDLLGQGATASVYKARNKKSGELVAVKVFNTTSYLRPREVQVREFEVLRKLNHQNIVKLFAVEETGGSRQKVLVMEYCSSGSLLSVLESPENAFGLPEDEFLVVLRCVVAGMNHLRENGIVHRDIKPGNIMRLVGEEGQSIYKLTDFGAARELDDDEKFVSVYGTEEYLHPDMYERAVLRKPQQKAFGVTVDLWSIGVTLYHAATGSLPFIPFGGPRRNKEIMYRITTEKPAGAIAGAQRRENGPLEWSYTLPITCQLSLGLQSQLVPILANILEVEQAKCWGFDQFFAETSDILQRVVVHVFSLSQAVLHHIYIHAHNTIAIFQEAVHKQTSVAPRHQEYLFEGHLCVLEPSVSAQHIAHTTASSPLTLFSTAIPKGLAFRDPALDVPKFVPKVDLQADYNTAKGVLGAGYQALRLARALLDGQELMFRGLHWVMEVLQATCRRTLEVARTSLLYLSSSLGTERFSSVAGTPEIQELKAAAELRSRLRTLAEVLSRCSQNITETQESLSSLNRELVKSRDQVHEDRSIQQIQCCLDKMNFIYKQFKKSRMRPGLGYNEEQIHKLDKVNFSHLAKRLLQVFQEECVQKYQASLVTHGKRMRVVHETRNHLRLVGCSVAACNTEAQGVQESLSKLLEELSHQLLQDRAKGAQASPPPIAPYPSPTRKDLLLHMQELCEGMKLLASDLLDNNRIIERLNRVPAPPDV

PIK3CD (human) = PIK3CD (human) (UniProt O00329)
BRAF (human) = BRAF (human) (UniProt P15056)
DCLK3 (human) = DCLK3 (human) (UniProt Q9C098)

## Cn1c2ccccc2c2c3c(c4c5ccccc5n(CCC#N)c4c21)CNC3=O
IKBKB (human)
  kinase still bound, per cent of control: 50%
[1]
  kinase still bound, per cent of control: 100%
CLK4 (human)
  kinase still bound, per cent of control: 6.1%
BMPR1A (human)
  kinase still bound, per cent of control: 73%
FLT4 (human)
  kinase still bound, per cent of control: 62%
[2]
  kinase still bound, per cent of control: 84%
BMP2K (human)
  kinase still bound, per cent of control: 3.4%
PI4KB (human)
  kinase still bound, per cent of control: 62%
RIPK1 (human)
  kinase still bound, per cent of control: 100%
OXSR1 (human)
  kinase still bound, per cent of control: 100%
EPHB2 (human)
  kinase still bound, per cent of control: 100%
EPHB4 (human)
  kinase still bound, per cent of control: 100%
STK32C (human)
  kinase still bound, per cent of control: 100%
RPS6KA2 KD1 (human)
  kinase still bound, per cent of control: 5.4%
CDK18 (human)
  kinase still bound, per cent of control: 91%
STK33 (human)
  kinase still bound, per cent of control: 1.5%
PIK3CA (human)
  kinase still bound, per cent of control: 100%
CSNK1G1 (human)
  kinase still bound, per cent of control: 100%
MAPK12 (human)
  kinase still bound, per cent of control: 68%
TGFBR2 (human)
  kinase still bound, per cent of control: 100%
PAK7 (human)
  kinase still bound, per cent of control: 3.4%
RPS6KA5 KD2 (human)
  kinase still bound, per cent of control: 71%
ANKK1 (human)
  kinase still bound, per cent of control: 70%
PDGFRB (human)
  kinase still bound, per cent of control: 42%
MAPK11 (human)
  kinase still bound, per cent of control: 97%
CDC42BPB (human)
  kinase still bound, per cent of control: 100%
FES (human)
  kinase still bound, per cent of control: 85%
MLTK (human)
  kinase still bound, per cent of control: 96%
AKT1 (human)
  kinase still bound, per cent of control: 100%
NUAK1 (human)
  kinase still bound, per cent of control: 89%
PRKG2 (human)
  kinase still bound, per cent of control: 11%
LRRK2 (human)
  kinase still bound, per cent of control: 19%
[3]
  kinase still bound, per cent of control: 0.2%
WEE1 (human)
  kinase still bound, per cent of control: 100%
MAP2K3 (human)
  kinase still bound, per cent of control: 5%
CDC2L2 (human)
  kinase still bound, per cent of control: 84%
[4]
  kinase still bound, per cent of control: 0.95%
IKBKE (human)
  kinase still bound, per cent of control: 99%
PIK3CD (human)
  kinase still bound, per cent of control: 45%
BRAF (human)
  kinase still bound, per cent of control: 100%
DCLK3 (human)
  kinase still bound, per cent of control: 100%
